Laboratory results taken from patent US9440941B2, “Substituted chroman-6-yloxy-cycloalkanes and their use as pharmaceuticals” (SANOFI, priority 2013, dated 2016).
Structures can show the parent of a compound that is named as a salt.

molecular target: T1, human NCX1 (Homo sapiens, UniProt P32418); assay: Inhibition of Ca2+ influx into cells (NCX1 reverse mode), FLIPR Fluo-4 assay; type: cell-based; details: inhibition of NCX1 in reverse mode (Ca2+ influx into cells); read-out: NCX1rv IC50
T1 construct: expressed in transfected cells
Method in brief: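 CHO cells stably expressing human NCX1, loaded with Fluo-4 AM, preincubated with compound 45 min at 16 °C in pH 7.4 buffer (3.5 mM CaCl2). Reverse mode triggered by 20 µM gramicidin (final); Fluo-4 fluorescence read at 520 nm every 2 s. IC50 from percentage inhibition of max-minus-min fluorescence.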

Row | Compound | IC50 [nM]
1 | Cc1n[nH]cc1CN[C@H]1CC[C@H](Oc2ccc3c(c2)CCC(c2ccccc2)O3)CC1 (stereo partly drawn) [compound 66] | 400
2 | Cc1ncsc1CN[C@H]1CC[C@H](Oc2ccc3c(c2)CCC(c2ccccc2)O3)CC1 (stereo partly drawn) [compound 67, N-(4-Methylthiazol-5-ylmethyl)-[trans-4-(2-phenylchroman-6-yloxy)]-cyclohexylamine] | 400
3 | CCn1cc(CN[C@H]2CC[C@H](Oc3ccc4c(c3)CCC(c3ccccc3)O4)CC2)c(C)n1 (stereo partly drawn) [compound 68, N-(1-Ethyl-3-methyl-pyrazol-4-ylmethyl)-[trans-4-(2-phenylchroman-6-yloxy)]-cyclohexylamine] | 300
4 | Clc1ccc(CN[C@H]2CC[C@H](Oc3ccc4c(c3)CCC(c3ccccc3)O4)CC2)s1 (stereo partly drawn) [compound 69, N-(5-Chloro-thiophen-2-ylmethyl)-[trans-4-(2-phenylchroman-6-yloxy)]-cyclohexylamine] | 1300
5 | CCC(C)CN[C@H]1CC[C@H](Oc2ccc3c(c2)CCC(c2ccccc2)O3)CC1 (stereo partly drawn) [compound 70, N-(2-methylbutyl)-[trans-4-(2-phenylchroman-6-yloxy)]-cyclohexylamine] | 500
6 | CN[C@@H](C)C(=O)N[C@H]1CC[C@H](Oc2ccc3c(c2)CCC(c2ccccc2)O3)CC1 (stereo partly drawn) [compound 71, hydrochloride] | 600
7 | C[C@@H](N)C(=O)N[C@H]1CC[C@H](Oc2ccc3c(c2)CCC(c2ccccc2)O3)CC1 (stereo partly drawn) [compound 72, hydrochloride] | 300
8 | OC1CCC(Oc2ccc3c(c2)CCC(c2ccccc2)O3)CC1 (stereo not drawn) [compound 74, 4-(2-Phenylchroman-6-yloxy)cyclohexanol] | 300
9 | O=S(=O)(CCc1ccncc1)N[C@H]1CC[C@H](Oc2ccc3c(c2)CC[C@@H](c2ccccc2)O3)CC1 [compound 75] | 1000
10 | CCn1nccc1CNC1CCC(Oc2ccc3c(c2)CCC(c2ccccc2)O3)CC1 (stereo not drawn) [compound 76] | 1000
11 | O=C1CCC(Oc2ccc3c(c2)CCC(c2ccccc2)O3)CC1 (stereo not drawn) [compound 77, 4-(2-Phenylchroman-6-yloxy)cyclohexanone] | 400
12 | CC(=O)OC1CCC(Oc2ccc3c(c2)CCC(c2ccccc2)O3)CC1 (stereo not drawn) [compound 78, [4-(2-Phenylchroman-6-yloxy)cyclohexyl] acetate] | 600
13 | c1ccc(C2CCc3cc(O[C@H]4CC[C@H](N(Cc5ccsc5)Cc5ccsc5)CC4)ccc3O2)cc1 (stereo partly drawn) [compound 79, [trans-4-(2-Phenylchroman-6-yloxy)]-N,N-bis(thiophen-3-ylmethyl)cyclohexylamine] | 11000
14 | c1ccc(C2CCc3cc(O[C@H]4CC[C@H](N(CC5CC5)CC5CC5)CC4)ccc3O2)cc1 (stereo partly drawn) [compound 80, N,N-Bis(cyclopropylmethyl)-[trans-4-(2-phenylchroman-6-yloxy)]-cyclohexylamine] | 500
15 | Cn1cc(Cl)c(CN(Cc2nn(C)cc2Cl)[C@H]2CC[C@H](Oc3ccc4c(c3)CCC(c3ccccc3)O4)CC2)n1 (stereo partly drawn) [compound 81, N,N-Bis(4-chloro-1-methyl-pyrazol-3-ylmethyl)-[trans-4-(2-phenylchroman-6-yloxy)]-cyclohexylamine] | 4000
16 | Cc1cc(CN(Cc2cc(C)on2)[C@H]2CC[C@H](Oc3ccc4c(c3)CCC(c3ccccc3)O4)CC2)no1 (stereo partly drawn) [compound 82, N,N-Bis(5-methylisoxazol-3-ylmethyl)-[trans-4-(2-phenylchroman-6-yloxy)]-cyclohexylamine] | 3800
17 | c1ccc(C2CCc3cc(O[C@H]4CC[C@H](N(Cc5cncs5)Cc5cncs5)CC4)ccc3O2)cc1 (stereo partly drawn) [compound 83, [trans-4-(2-Phenylchroman-6-yloxy)]-N,N-bis(thiazol-5-ylmethyl)cyclohexylamine] | 1400
18 | Cn1ccc(CN(Cc2ccn(C)n2)[C@H]2CC[C@H](Oc3ccc4c(c3)CCC(c3ccccc3)O4)CC2)n1 (stereo partly drawn) [compound 84, N,N-Bis(1-methylpyrazol-3-ylmethyl)-[trans-4-(2-phenylchroman-6-yloxy)]-cyclohexylamine] | 800
19 | c1ccc(C2CCc3cc(O[C@H]4CC[C@H](N(Cc5ccoc5)Cc5ccoc5)CC4)ccc3O2)cc1 (stereo partly drawn) [compound 85, N,N-Bis(furan-3-ylmethyl)-[trans-4-(2-phenylchroman-6-yloxy)]-cyclohexylamine] | 800
20 | Cc1nc(CN(Cc2csc(C)n2)[C@H]2CC[C@H](Oc3ccc4c(c3)CCC(c3ccccc3)O4)CC2)cs1 (stereo partly drawn) [compound 86, N,N-Bis(2-methylthiazol-4-ylmethyl)-[trans-4-(2-phenylchroman-6-yloxy)]-cyclohexylamine] | 800

Row | Compound | IC50 [nM]
21 | Cc1cc(CN(Cc2cc(C)n(C)n2)[C@H]2CC[C@H](Oc3ccc4c(c3)CCC(c3ccccc3)O4)CC2)nn1C (stereo partly drawn) [compound 87, N,N-Bis(1,5-dimethylpyrazol-3-ylmethyl)-[trans-4-(2-phenylchroman-6-yloxy)]-cyclohexylamine] | 1300
22 | CCC(C)CN(CC(C)CC)[C@H]1CC[C@H](Oc2ccc3c(c2)CCC(c2ccccc2)O3)CC1 (stereo partly drawn) [compound 88, N,N-Bis(2-methylbutyl)-[trans-4-(2-phenylchroman-6-yloxy)]-cyclohexylamine] | 2500
23 | O=C(OC1CCC(Oc2ccc3c(c2)CCC(c2ccccc2)O3)CC1)c1ccncc1F (stereo not drawn) [compound 89, 3-Fluoro-isonicotinic acid 4-(2-phenyl-chroman-6-yloxy)-cyclohexyl ester] | 400
24 | CCCC1(O)CCC(Oc2ccc3c(c2)CCC(c2ccccc2)O3)CC1 (stereo not drawn) [compound 90, 4-(2-Phenylchroman-6-yloxy)-1-propyl-cyclohexanol] | 200
25 | Cc1nc(CNC2CCC(Oc3ccc4c(c3)CCC(c3ccccc3)O4)CC2)no1 (stereo not drawn) [compound 97] | 500
26 | CC(C)CCNC1CCC(Oc2ccc3c(c2)CCC(c2ccccc2)O3)CC1 (stereo not drawn) [compound 98] | 600
27 | O=C(NCCO)C1CCC(Oc2ccc3c(c2)CC[C@H](c2ccccc2)O3)CC1 (stereo partly drawn) [compound 99] | 300
28 | CCC(C)CN(CCO)C1CCC(Oc2ccc3c(c2)CCC(c2ccccc2)O3)CC1 (stereo not drawn) [compound 100] | 1400
29 | CCC(C)CNC1CCC(Oc2ccc3c(c2)CCC(c2ccccc2)O3)CC1 (stereo not drawn) [compound 101] | 900
30 | O=C(NCCO)C1CCC(Oc2ccc3c(c2)CC[C@@H](c2ccccc2)O3)CC1 (stereo partly drawn) [compound 102, N-(2-Hydroxyethyl)-4-((S)-2-phenylchroman-6-yloxy)-cyclohexanecarboxamide] | 1100
31 | c1ccc(C2CCc3cc(OC4CCC(NCc5ccoc5)CC4)ccc3O2)cc1 (stereo not drawn) [compound 103] | 800
32 | Cc1nn(C)c(C)c1CNC1CCC(Oc2ccc3c(c2)CCC(c2ccccc2)O3)CC1 (stereo not drawn) [compound 104] | 800
33 | c1ccc(C2CCc3cc(OC4CCC(NC5CCCCC5)CC4)ccc3O2)cc1 (stereo not drawn) [compound 105] | 1100
34 | CCCC(C)NC1CCC(Oc2ccc3c(c2)CCC(c2ccccc2)O3)CC1 (stereo not drawn) [compound 106] | 800
35 | CC(C)CCCNC1CCC(Oc2ccc3c(c2)CCC(c2ccccc2)O3)CC1 (stereo not drawn) [compound 107] | 800
36 | CCCCNC1CCC(Oc2ccc3c(c2)CCC(c2ccccc2)O3)CC1 (stereo not drawn) [compound 108] | 600
37 | CC(C)C(C)NC1CCC(Oc2ccc3c(c2)CCC(c2ccccc2)O3)CC1 (stereo not drawn) [compound 109] | 1000
38 | COCC(C)NC1CCC(Oc2ccc3c(c2)CCC(c2ccccc2)O3)CC1 (stereo not drawn) [compound 110] | 1300
39 | CSCCNC1CCC(Oc2ccc3c(c2)CCC(c2ccccc2)O3)CC1 (stereo not drawn) [compound 111] | 600
40 | CCOCCCNC1CCC(Oc2ccc3c(c2)CCC(c2ccccc2)O3)CC1 (stereo not drawn) [compound 112] | 900

Row | Compound | IC50 [nM]
41 | CCCNC1CCC(Oc2ccc3c(c2)CCC(c2ccccc2)O3)CC1 (stereo not drawn) [compound 113] | 500
42 | CCC(C)CCNC1CCC(Oc2ccc3c(c2)CCC(c2ccccc2)O3)CC1 (stereo not drawn) [compound 114] | 700
43 | COCC(C)(C)CNC1CCC(Oc2ccc3c(c2)CCC(c2ccccc2)O3)CC1 (stereo not drawn) [compound 115] | 1000
44 | c1ccc(C2CCc3cc(OC4CCC(NCCCC5CCOC5)CC4)ccc3O2)cc1 (stereo not drawn) [compound 116] | 600
45 | c1ccc(C2CCc3cc(OC4CCC(NCCSC5CCCCC5)CC4)ccc3O2)cc1 (stereo not drawn) [compound 117] | 3700
46 | CC(C)N1CCC(CNC2CCC(Oc3ccc4c(c3)CCC(c3ccccc3)O4)CC2)CC1 (stereo not drawn) [compound 118] | 2100
47 | CC(C)SCCNC1CCC(Oc2ccc3c(c2)CCC(c2ccccc2)O3)CC1 (stereo not drawn) [compound 119] | 1100
48 | c1ccc(C2CCc3cc(OC4CCC(NCCC5CCOCC5)CC4)ccc3O2)cc1 (stereo not drawn) [compound 120] | 800
49 | COCCCNC1CCC(Oc2ccc3c(c2)CCC(c2ccccc2)O3)CC1 (stereo not drawn) [compound 121] | 700
50 | CC(C)(C)OCCCNC1CCC(Oc2ccc3c(c2)CCC(c2ccccc2)O3)CC1 (stereo not drawn) [compound 122] | 1200
51 | c1ccc(C2CCc3cc(OC4CCC(NC5CC5)CC4)ccc3O2)cc1 (stereo not drawn) [compound 123] | 1000
52 | CCCC1(NC2CCC(Oc3ccc4c(c3)CCC(c3ccccc3)O4)CC2)CC1 (stereo not drawn) [compound 124] | 2400
53 | c1ccc(C2CCc3cc(OC4CCC(NC5CCOCC5)CC4)ccc3O2)cc1 (stereo not drawn) [compound 125] | 1900
54 | c1ccc(C2CCc3cc(OC4CCC(NCCCOC5CCCC5)CC4)ccc3O2)cc1 (stereo not drawn) [compound 126] | 1600
55 | CC(C)(C)CCNC1CCC(Oc2ccc3c(c2)CCC(c2ccccc2)O3)CC1 (stereo not drawn) [compound 127] | 1100
56 | CC(CN(C)C)NC1CCC(Oc2ccc3c(c2)CCC(c2ccccc2)O3)CC1 (stereo not drawn) [compound 128] | 1700
57 | c1ccc(C2CCc3cc(OC4CCC(NCC5CCCO5)CC4)ccc3O2)cc1 (stereo not drawn) [compound 129] | 700
58 | CC(C)OCCCNC1CCC(Oc2ccc3c(c2)CCC(c2ccccc2)O3)CC1 (stereo not drawn) [compound 134] | 1100
59 | O=C(C1CCC(Oc2ccc3c(c2)CCC(c2ccccc2)O3)CC1)N(CCO)CCO (stereo not drawn) [compound 157, N,N-Bis(2-hydroxyethyl)-4-(2-phenylchroman-6-yloxy)-cyclohexanecarboxamide] | 2000
60 | NCC(=O)N[C@H]1CC[C@H](Oc2ccc3c(c2)CC[C@H](c2ccccc2)O3)CC1 [compound 160, hydrochloride] | 1100
